# Laboratory results as given in patent publication US12673052B2, “Combinations for the treatment of cancer” (Exelixis, Inc., priority 2020, dated 2026).
# Assays:
# [1] = system: MC38 tumor; experiment: Tumor microvessels by CD31 staining in MC38 tumor-bearing animals; format: in vivo, murine
# Protocol: MC38 tumor-bearing animals were treated with a range of Compound 1 doses (PO, qd; 3 mg/kg, 10 mg/kg, 30 mg/kg Compound 1) for 5 days. Tumors were analyzed for the presence of tumor microvessels by CD31 staining. FIG. 1A and FIG. 1B compare the tumor microvessels after administration of different doses of Compared 1 with vehicle.
# [2] = biological target: T1, MET (Homo sapiens, UniProt P08581, DEL964-1010); experiment: Endogenous phosphorylated MET in Hs 746T gastric carcinoma cells (MET exon 14 skip-splice mutation); format: cell-based; conditions: MET (Hs 746T), no ligand; read-out: Cellular IC50
# T1 construct: endogenous in cells; host or cells: Hs 746T gastric carcinoma cells
# T1 sequence (P08581 with tags, fused parts or gaps DEL964-1010 limits assumed): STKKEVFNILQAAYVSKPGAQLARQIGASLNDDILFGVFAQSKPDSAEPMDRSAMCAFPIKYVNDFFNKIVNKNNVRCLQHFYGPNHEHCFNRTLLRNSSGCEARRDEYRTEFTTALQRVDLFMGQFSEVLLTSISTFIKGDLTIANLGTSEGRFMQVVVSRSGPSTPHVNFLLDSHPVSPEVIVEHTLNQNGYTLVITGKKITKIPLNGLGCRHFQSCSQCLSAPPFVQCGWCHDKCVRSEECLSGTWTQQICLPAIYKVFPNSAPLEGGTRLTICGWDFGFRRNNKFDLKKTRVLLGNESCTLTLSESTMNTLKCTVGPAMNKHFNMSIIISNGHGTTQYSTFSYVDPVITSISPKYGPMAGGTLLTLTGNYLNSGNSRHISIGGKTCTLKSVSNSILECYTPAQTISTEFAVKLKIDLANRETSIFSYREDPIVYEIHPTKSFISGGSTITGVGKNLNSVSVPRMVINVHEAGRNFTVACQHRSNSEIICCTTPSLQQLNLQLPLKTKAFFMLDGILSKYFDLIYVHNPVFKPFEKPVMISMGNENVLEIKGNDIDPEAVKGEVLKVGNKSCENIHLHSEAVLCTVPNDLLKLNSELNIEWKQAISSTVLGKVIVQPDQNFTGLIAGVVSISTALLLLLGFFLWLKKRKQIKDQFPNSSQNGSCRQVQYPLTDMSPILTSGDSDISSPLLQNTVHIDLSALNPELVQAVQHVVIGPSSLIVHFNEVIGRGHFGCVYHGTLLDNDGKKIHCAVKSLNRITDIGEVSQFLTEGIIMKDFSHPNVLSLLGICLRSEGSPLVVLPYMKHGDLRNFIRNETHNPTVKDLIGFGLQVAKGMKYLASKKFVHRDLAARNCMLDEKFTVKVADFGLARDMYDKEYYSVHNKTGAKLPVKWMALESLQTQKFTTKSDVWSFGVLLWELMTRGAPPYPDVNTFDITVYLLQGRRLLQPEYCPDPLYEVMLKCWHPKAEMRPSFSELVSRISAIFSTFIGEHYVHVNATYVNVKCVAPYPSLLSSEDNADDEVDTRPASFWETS
# T1 sequence (P08581 25-307 partner limits assumed): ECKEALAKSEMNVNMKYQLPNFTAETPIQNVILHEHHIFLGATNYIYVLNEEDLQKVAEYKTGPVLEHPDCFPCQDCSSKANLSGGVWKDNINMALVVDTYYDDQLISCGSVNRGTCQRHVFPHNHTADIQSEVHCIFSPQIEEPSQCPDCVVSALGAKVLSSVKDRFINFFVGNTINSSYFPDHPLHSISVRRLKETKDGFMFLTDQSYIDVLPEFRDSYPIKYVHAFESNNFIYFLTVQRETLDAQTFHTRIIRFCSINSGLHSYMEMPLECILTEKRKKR
# Protocol: (§1) The activity of Compound 1 was evaluated in cell-based assays that assessed the mechanistic effects of the compound in tumor and normal cells. Consistent with the biochemical data, Compound 1 is a potent inhibitor of cellular RTKs as assessed by analysis of receptor autophosphorylation as measured by enzyme-linked immunosorbent assay. Assays were performed using cell lines (PC-3, HUVEC, and A-172) stimulated with ligands to their respective receptors to induce autophosphorylation (MET, VEGFR2, and AXL) or a cell line (293A) transfected with an expression vector encoding the receptor of interest (MER). Inhibition of endogenous phosphorylated MET by Compound 1 in Hs 746T gastric carcinoma cells was also investigated due to the presence of the skip-splice mutation of exon 14 in the MET gene. This MET exon 14 alteration leads to increased MET stability and oncogenic activation, including constitutive MET phosphorylation. Also this mutation is known to occur in 3% of lung adenocarcinoma patients and to be sensitive to MET-targeted therapies (Frampton et al 2015).
# [3] = system: NCI-H441; experiment: Tumor growth inhibition in xenograft model; format: in vivo, athymic nude mice
# Protocol: Three human tumor cell lines, NCI-H441, MDA-MB-231, and SNU-5, were selected for use in tumor xenograft studies using athymic nude, NSG and CB.17 SCID mice, respectively. Pharmacodynamic modulation of MET phosphorylation was also measured in the NCI-H441 and SNU-5 xenografts. Tumor-bearing mice were orally dosed once-daily for 14 days (qd×14), and the tumors were resected and processed for MET phosphorylation analysis by Western blot. […]
# [4] = Toxicokinetics in 28-day repeat-dose toxicity study; format: in vivo, rats; conditions: for half-life: oral, read-out: Half-life (t1/2)
# Protocol: In a 28-day repeat-dose toxicity study in rats dosed orally daily with Compound 1 at 1, 3 or 10 mg/kg, Compound 1 exposure (Cmax and AUC0-24) increased with the increase in dose level from 1-10 mg/kg/day. […] Accumulation ratio values ranged from 0.721-1.14 for Cmax and from 0.722-0.891 for AUC0-24. Consistent with the single-dose PK data, exposure in rats at steady-state on Day 28 for low doses appeared to be approximately 20-fold higher than that observed in dogs.
# [5] = Tablet versus PIB formulation, single oral 20 mg dose, parallel design; format: in vivo, dogs; conditions: for half-life: po, read-out: t1/2, z (mean) (converted)
# Protocol: In a parallel design study with a total of 24 dogs (1:1 treatment allocation ratio), Group 1 received Compound 1 as a 20-mg oral tablet and Group 2 received a 20-mg reconstituted oral suspension of the PIB formulation. For each dose group, blood samples were collected from each animal at pre-dose and up to 24 hours post-dose for Compound 1 plasma concentration measurements.
# [6] = Permeability in Caco-2 cells; format: in vitro ADME; conditions: human, highly permeable, read-out: apparent permeability coefficient (Papp)
# [7] = system: CYP1A2; experiment: Cytochrome P450 induction (mRNA levels) in fresh primary human hepatocytes; format: in vitro ADME
# [8] = system: CYP2B6; experiment: as above; format: in vitro ADME
# [9] = system: CYP2C19; experiment: as above; format: in vitro ADME
# [10] = Liver microsomal stability assay; format: in vitro ADME, monkey; conditions: liver microsomes
# Protocol: (§2) In the liver microsomal stability assay, CLint was 0.601 mL/min/g liver in mouse, 0.563 mL/min/g liver in rat, 0.315 mL/min/g liver in dog, 0.734 mL/min/g liver in monkey, and 0.639 mL/min/g liver in human. In the hepatocyte stability assay, Compound 1 CLint was 0.373 mL/min/g liver in mouse, 0.285 mL/min/g liver in rat, 1.08 mL/min/g liver in dog, 0.533 mL/min/g liver in monkey, and 0.317 mL/min/g liver in human.
# [11] = Liver microsomal stability assay; format: in vitro ADME, human; conditions: liver microsomes
# Protocol: as §2
# [12] = Hepatocyte stability assay; format: in vitro ADME, human; conditions: hepatocytes
# Protocol: The mean plasma t1/2, z values were approximately 9 hours in rats and 4 hours in dogs. Interspecies scaling based on body weight to predict PK parameters in humans could not be performed because dogs (larger species) cleared Compound 1 faster than rats (smaller species). Therefore, the human PK was projected based on one species (rat). […] This apparent clearance value (CL/F) was used to predict steady-state exposure (AUC and average plasma concentration [Cavg]) in humans for the proposed first-in-human (FIH) starting dose for Study Compound 1-001.
# as §2
# [13] = GLP safety pharmacology: cardiovascular, telemeterized dogs; format: in vivo
# Protocol: The nonclinical toxicity of Compound 1 was characterized in dose range-finding 7-day and definitive 28-day repeat-dose studies in rats and dogs, and in in vitro bacterial and mammalian genotoxicity bioassays. Compound 1 was also evaluated in definitive neurobehavioral, respiratory and cardiovascular safety pharmacology studies.
# [14] = biological target: hERG channel (Homo sapiens, UniProt Q12809); experiment: In vitro hERG channel inhibition; format: cell-based
# hERG channel, sequence (Q12809 whole entry): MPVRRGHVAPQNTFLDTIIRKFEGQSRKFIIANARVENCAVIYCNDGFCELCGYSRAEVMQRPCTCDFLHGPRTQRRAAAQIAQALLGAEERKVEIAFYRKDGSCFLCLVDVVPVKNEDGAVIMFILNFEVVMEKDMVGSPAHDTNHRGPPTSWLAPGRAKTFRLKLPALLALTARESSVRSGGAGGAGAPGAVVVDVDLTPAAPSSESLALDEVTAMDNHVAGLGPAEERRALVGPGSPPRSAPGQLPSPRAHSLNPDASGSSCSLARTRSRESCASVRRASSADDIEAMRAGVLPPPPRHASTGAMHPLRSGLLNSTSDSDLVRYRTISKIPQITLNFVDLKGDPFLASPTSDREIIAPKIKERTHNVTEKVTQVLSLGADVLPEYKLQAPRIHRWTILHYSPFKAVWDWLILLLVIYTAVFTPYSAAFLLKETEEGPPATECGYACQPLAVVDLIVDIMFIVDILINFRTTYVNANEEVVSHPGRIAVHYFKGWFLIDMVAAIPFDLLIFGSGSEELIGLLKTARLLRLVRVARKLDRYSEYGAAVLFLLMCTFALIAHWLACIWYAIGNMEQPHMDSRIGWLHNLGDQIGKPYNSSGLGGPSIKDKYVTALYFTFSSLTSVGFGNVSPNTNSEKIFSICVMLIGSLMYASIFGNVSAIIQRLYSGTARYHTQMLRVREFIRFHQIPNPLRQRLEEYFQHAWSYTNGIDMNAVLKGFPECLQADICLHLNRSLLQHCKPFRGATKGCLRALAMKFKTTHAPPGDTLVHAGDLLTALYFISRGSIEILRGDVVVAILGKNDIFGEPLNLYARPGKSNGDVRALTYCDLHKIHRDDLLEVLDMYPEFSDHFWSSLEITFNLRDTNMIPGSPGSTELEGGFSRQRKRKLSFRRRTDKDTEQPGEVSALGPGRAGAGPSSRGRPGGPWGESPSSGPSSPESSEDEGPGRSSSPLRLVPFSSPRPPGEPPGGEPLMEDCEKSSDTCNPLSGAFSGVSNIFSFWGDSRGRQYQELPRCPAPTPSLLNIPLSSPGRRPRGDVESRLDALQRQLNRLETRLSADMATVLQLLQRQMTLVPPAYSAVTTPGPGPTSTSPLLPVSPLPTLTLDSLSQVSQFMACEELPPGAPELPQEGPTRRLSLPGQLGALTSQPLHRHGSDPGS
# [15] = biological target: MER (Homo sapiens, UniProt Q12866); experiment: RTK autophosphorylation ELISA, 293A cells transfected with receptor expression vector; format: cell-based; set-up: expressed in transfected cells; host or cells: 293A; conditions: no ligand, read-out: Cellular IC50
# MER, sequence (Q12866 21-999): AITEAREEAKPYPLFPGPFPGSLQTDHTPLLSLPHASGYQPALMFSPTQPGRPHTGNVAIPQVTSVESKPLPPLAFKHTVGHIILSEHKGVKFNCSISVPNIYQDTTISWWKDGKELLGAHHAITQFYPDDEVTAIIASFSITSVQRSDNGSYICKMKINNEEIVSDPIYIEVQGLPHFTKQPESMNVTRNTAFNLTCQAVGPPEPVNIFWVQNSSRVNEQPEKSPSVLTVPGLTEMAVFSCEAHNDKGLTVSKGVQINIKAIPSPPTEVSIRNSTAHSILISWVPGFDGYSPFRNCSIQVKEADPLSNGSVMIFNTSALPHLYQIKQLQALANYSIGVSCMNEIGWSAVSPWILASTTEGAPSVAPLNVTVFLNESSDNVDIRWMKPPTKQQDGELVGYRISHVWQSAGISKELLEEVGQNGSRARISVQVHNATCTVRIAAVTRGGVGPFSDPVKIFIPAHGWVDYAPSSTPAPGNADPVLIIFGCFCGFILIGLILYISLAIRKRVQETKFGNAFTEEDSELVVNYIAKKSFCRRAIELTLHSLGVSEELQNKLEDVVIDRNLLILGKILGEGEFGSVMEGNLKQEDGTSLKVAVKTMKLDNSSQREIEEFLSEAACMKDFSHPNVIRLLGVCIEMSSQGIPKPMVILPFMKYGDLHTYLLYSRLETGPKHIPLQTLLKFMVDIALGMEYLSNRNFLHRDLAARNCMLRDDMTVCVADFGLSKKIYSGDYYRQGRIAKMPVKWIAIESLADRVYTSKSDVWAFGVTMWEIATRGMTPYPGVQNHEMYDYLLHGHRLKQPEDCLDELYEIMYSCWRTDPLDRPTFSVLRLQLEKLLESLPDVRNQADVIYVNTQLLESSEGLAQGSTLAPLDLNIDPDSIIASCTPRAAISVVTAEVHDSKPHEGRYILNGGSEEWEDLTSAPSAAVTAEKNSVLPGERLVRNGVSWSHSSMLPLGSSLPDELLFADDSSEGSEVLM
# Protocol: as §1
# [16] = Day 28 vs Day 1, 1-10 mg/kg/day
# [17] = human, fresh primary human hepatocytes, mRNA induction, read-out: half-maximal effective concentration (EC50)
structure (smiles),measurement,setting,value
"CNC(=O)c1cc2c(Oc3ccc(NC(=O)C4(C(=O)Nc5ccc(F)cc5)CC4)cc3)ccnc2cc1OC [Compound 1, 1-N′-(4-Fluorophenvl)-1-N-[4-[7-methoxy-6-(methylcarbamovl)quinolin-4-yl]oxyphenyl]cyclopropane-1,1-dicarboxamide]",average vessel number (CD31 staining),"[1]; 30 mg/kg PO qd 5 days, vehicle 26.9",17.6
same,presence of tumor microvessels,"[1]; 3, 10, 30 mg/kg PO qd 5 days",Dose-dependent decreases
same,IC50,[2],26 nM
same,TGI (%),"[3]; 3 mg/kg qd × 14 oral, p-value 0.0115",63.3%
same,TGI (%),"[3]; 10 mg/kg qd × 14 oral, p-value <0.0001",regression
same,Sex differences in mean Cmax and AUC values,[4]; 28-day study,less than 2 fold
same,steady-state exposure in rats relative to dogs,"[4]; Day 28, dose-normalized AUC0-24, ss, higher in rats",approximately 20 fold
same,Accumulation ratio for AUC0-24,[4]; [16],0.722-0.891
same,Accumulation ratio for Cmax,[4]; [16],0.721-1.14
same,half-life,"[4]; both sexes, rat, plasma, Day 1",3.51 to 3.7 h
same,half-life,"[4]; both sexes, rat, plasma, Day 28",6.7 to 8.97 h
same,Tmax,"[4]; both sexes, rat, plasma, oral daily 1, 3 or 10 mg/kg, Days 1 and 28",2 to 8 h
same,mean AUC0-24 of PIB formulation higher than tablet formulation,[5]; 20 mg single oral dose,49%
same,mean Cmax of PIB formulation higher than tablet formulation,[5]; 20 mg single oral dose,61%
same,Tmax,"[5]; beagle, dog, plasma, oral, 20 mg, both formulations (PIB and tablet), read-out: median tmax",3 h
same,half-life,"[5]; beagle, dog, plasma, 20 mg, 20 mg reconstituted oral suspension of PIB formulation",4.85 h
same,half-life,"[5]; beagle, dog, plasma, 20 mg, 20-mg oral tablet",5.66 h
same,Papp,[6],3.83 ×10⁻⁶ cm/s
same,EC50,[7]; [17],930 nM
same,maximal induction effect (Emax),"[7]; mRNA, 0.1-100 μM",5 fold
same,EC50,[8]; [17],5410 nM
same,maximal induction effect (Emax),"[8]; mRNA, 0.1-100 μM",17 fold
same,EC50,[9]; [17],6210 nM
same,maximal induction effect (Emax),"[9]; mRNA, 0.1-100 μM",6 fold
same,CLint,[10],0.734 mL/min/g liver
same,CLint,[11],0.639 mL/min/g liver
same,CLint,[12],0.317 mL/min/g liver
same,plasma Cmax relative to hERG channel IC50,"[13]; 18 mg/kg single dose, Cmax higher than IC50",approximately 2 fold
same,Cmax,"[13]; dog, plasma, oral, single dose 18 mg/kg, male telemeterized dogs",~7 µM
same,QTc interval,"[13]; male telemeterized dogs, single doses as high as 18 mg/kg",no QTc interval prolongation
same,effect on cardiovascular parameters,"[13]; single oral doses as high as 18 mg/kg, through 18 hours postdose",no significant effect on cardiovascular parameters
same,IC50,[14],~4000 nM
same,IC50,[15],7.1 nM
